{"source": "patent US12357601B2", "about": "“Composition for inhibiting growth of bacterium having menaquinone synthesis pathway through futalosine or futalosine derivative” (NOSTER INC., priority 2017, dated 2025)", "key": {"[1]": {"tested_on": "Helicobacter pylori SS1 strain, TN2GF4 strain, ATCC43579 strain, NCTC11637 strain, TY281 strain, TY1345 strain", "experiment": "Proliferation inhibitory effect (in vitro), static culture 3 days, colony count", "assay_type": "cell-based", "conditions": "fatty acid 200 μM or 1000 μM, 3 days; six strains; compared with linoleic acid", "method": "Helicobacter pylori SS1 strain, TN2GF4 strain, ATCC43579 strain, NCTC11637 strain, TY281 strain, TY1345 strain were each inoculated to a 6-well plate containing 3 mL of a liquid medium (Brucella broth added with 10% FCS), and fatty acid (200 μM or 1000 μM) and menaquinone (MK-4) 100 μg/mL were added. After static culture for 3 days at temperature 37° C., microaerobic conditions (5% 02, 10% 002, 85% N2), the culture medium was applied on a Helicobacter agar plate, cultured for 3 days and the resulting colonies were counted (FIG. 1-1 A: SS1 strain, FIG. 1-2 B: TN2GF4 strain, FIG. 1-3 C: ATCC43579 strain, FIG. 1-4 D: NCTC11637 strain, FIG. 1-5 E: TY281 strain, FIG. 1-6 F: TY1345 strain. Item C: control (no addition), Item 1: HYA addition, Item 2: HYA and menaquinone addition, Item 3: linoleic acid addition, Item 4: linoleic acid and menaquinone addition)."}, "[2]": {"tested_on": "Helicobacter pylori SS1 strain, TN2GF4 strain, TK1029 strain, RC-1 strain", "experiment": "Proliferation inhibitory effect (in vitro) of low concentration fatty acid, shaking culture 24 hr, colony count", "assay_type": "cell-based", "conditions": "fatty acid 20 μM, 24 hr; SS1, TN2GF4, TK1029, RC-1 strains; compared with linoleic acid", "method": "Helicobacter pylori SS1 strain, TN2GF4 strain, TK1029 strain, RC-1 strain were each inoculated to a 6-well plate containing 2 mL of a liquid medium (BHI added with 5% FCS), and fatty acid (20 μM) and menaquinone (MK-4) 100 μg/mL were added. After shaking culture for 24 hr at temperature 37° C., microaerobic conditions (5% 02, 10% CO2, 85% N2), the culture medium was applied on a Helicobacter agar plate, cultured for 3 days and the resulting colonies were counted (FIG. 2-1 A: SS1 strain, FIG. 2-2 B: TN2GF4 strain, FIG. 2-3 C: TK1029 strain, FIG. 2-4 D: RC-1 strain. Item 1: control (menaquinone no addition), Item 2: control (menaquinone 100 μg/mL addition), Item 3: HYA 20 μM (menaquinone no addition), Item 4: HYA 20 μM (menaquinone 100 μg/mL addition), Item 5: linoleic acid 20 μM (menaquinone no addition), Item 6: linoleic acid 20 μM (menaquinone 100 μg/mL addition). *, P<0.0001 vs. Control (ordinary one-way ANOVA))."}, "[3]": {"tested_on": "Helicobacter pylori SS1 strain or TN2GF4 strain", "experiment": "Proliferation inhibitory effect (in vivo) of HYA on Helicobacter pylori, number of bacteria in gastric mucosa", "parameters": "species or system C57BL/6 female mouse", "conditions": "200 μM in water from 1 week before infection; 2 weeks from final infection", "method": "A 5-week-old C57BL/6 female mouse was orally infected 3 times with Helicobacter pylori SS1 strain or TN2GF4 strain (1-5×10^8 CFU) every other day and dissected at 2 weeks from the final infection day, and the number of bacteria in the gastric mucosa was counted. Water added with HYA or linoleic acid (200 μM) was given to the mice from 1 week before infection (FIG. 4-1 A: SS1 strain, FIG. 4-2 B: TN2GF4 strain). A 5-week-old C57BL/6 female mouse was orally infected only once with a stomach suspension of Helicobacter suis TKY strain or SNTW101 strain-infected mouse and dissected 2 weeks later, and the number of bacteria in the gastric mucosa was counted. Water added with HYA (200 μM) was given to the mouse from one week before the infection (FIG. 4-3 C). […] The measurement of the number of Helicobacter suis bacteria in the stomach of the infected mouse was performed as follows."}, "CD19 and CD20 expression": {"tested_on": "CD19 and CD20 expression", "experiment": "Gastric MALT lymphoma model: CD19, CD20 expression in gastric mucosa (real-time RT-PCR)", "assay_type": "in vivo, C57BL/6 female mouse", "conditions": "200 μM in water; 6 months after infection with Helicobacter suis TKY strain; relative to GAPDH", "method": "Helicobacter suis is suspected to be the cause of the onset of gastric MALT lymphoma. A 5-week-old C57BL/6 female mouse was orally infected only once with a stomach suspension of Helicobacter suis TKY strain-infected mouse and dissected 6 months after the infection, and the number of bacteria in the gastric mucosa was counted according to the method described in Example 5. Water added with HYA (200 μM) was given to the mouse from one week before the infection.\nCD19 and CD20 are cell surface markers for B-cell lymphoma. Using real-time reverse transcription PCR (real-time RT-PCR), the expression levels of CD19 and CD20 were measured. Using NucleoSpin (registered trade mark) RNA Kit (Takara Bio Inc.), RNA was prepared from mouse gastric mucosa. Using PrimeScript™ RT Reagent Kit (Takara Bio Inc.), cDNA was prepared from RNA. For real-time RT-PCR, KAPA SYBR Fast ROX Low qPCR kit (KAPA BIOSYSTEMS Inc.) and QuantStudio7 Flex Real-time PCR System (Thermo Fisher Scientific Inc.) were used.\nThe conditions of 2-step real-time RT-PCR were as follows.\nThe expression level of CD19 or CD20 relative to that of glyceraldehyde-3-phosphate dehydrogenase (GAPDH) was converted to a numerical value and the value was further adjusted to make the average expression of CD19 or CD20 of the non-infection group 1. […]"}, "[4]": {"tested_on": "Campylobacter jejuni ATCC33560 strain", "experiment": "Proliferation inhibitory effect (in vitro) on Campylobacter jejuni, absorbance and colony count", "assay_type": "cell-based", "conditions": "100, 200, 400 μM, 24 hr; concentration dependent; strong compared to linoleic acid"}, "[5]": {"tested_on": "Campylobacter coli ATCC33559 strain", "experiment": "Proliferation inhibitory effect (in vitro) on Campylobacter coli, absorbance and colony count", "assay_type": "cell-based", "conditions": "100, 200, 400 μM, 24 hr; concentration dependent; strong compared to linoleic acid"}}}
{"compound": "CCCCC/C=C\\CC(O)CCCCCCCCC(=O)O", "note": "(stereo not drawn) [HYA, 10-hydroxy-cis-12-octadecenoic acid]", "values": [{"measurement": "proliferation of Helicobacter pylori (colony count)", "setting": "[1]", "value": "suppressed proliferation"}, {"measurement": "proliferation of Helicobacter pylori (colony count)", "setting": "[2]", "value": "suppressed proliferation"}, {"measurement": "proliferation of Helicobacter pylori SS1 strain, TN2GF4 strain (number of bacteria in gastric mucosa)", "setting": "[3]", "value": "inhibited proliferation"}, {"measurement": "CD19 relative expression level, compared to the non-administration group", "setting": "CD19 and CD20 expression", "value": "significantly suppressed"}, {"measurement": "CD20 relative expression level, compared to the non-administration group", "setting": "CD19 and CD20 expression", "value": "significantly suppressed"}, {"measurement": "proliferation of Campylobacter jejuni ATCC33560 strain", "setting": "[4]", "value": "inhibited proliferation"}, {"measurement": "proliferation of Campylobacter coli ATCC33559 strain", "setting": "[5]", "value": "inhibited proliferation"}]}
